Measured values taken from US20030055065A1, “Tricyclic amide and urea compounds useful for inhibition of G-protein function and for treatment of proliferative diseases” (priority 1993, published 2003).
Read-outs that look alike come from different tables or passages of the source.

What was measured:
[1] = test system: T24-BAG4 human bladder carcinoma cells expressing an activated H-ras gene; assay: Cell Mat Assay: tumor cell colony inhibition (tIC50); assay type: cell-based; settings: inhibition of tumor cell growth
Procedure: (§1) Compound-induced colony inhibition was assayed by addition of serial dilutions of compound directly to the growth medium 24 h after tumor cell planting, and incubating cells for an additional 14 d to allow colony formation. Assays were terminated by rinsing monolayers twice with phosphate-buffered saline (PBS), fixing the monolayers with a 1% glutaraldehyde solution in PBS, then visualizing tumor cells by staining with X-Gal (Price, J., et al., Lineage analysis in the vertebrate nervous system by retrovirus-mediated gene transfer, Proc. Natl. Acad. Sci.84, 156-160(1987)). […] Both IC50 values were obtained by determining the density of tumor cells and mat cells by visual inspection and enumeration of cells per colony and the number of colonies under the microscope.

[2] = test system: Ras-CVLS processing in COS monkey kidney cells; assay: COS cell assay: Ras-CVLS processing (Western blot); assay type: cell-based; settings: COS cells, read-out: Inhibition of Ras Processing IC50
Procedure: 2. […] Effect of farnesyl protein transferase inhibitors on Ras processing and on disordered cell growth induced by transforming Ras. COS monkey kidney cells were transfected by electroporation with the plasmid pSV-SPORT (Gibco/BRL) containing a cDNA insert encoding either Ras-CVLS or Ras-CVLL, leading to transient overexpression of a Ras substrate for either farnesyl protein transferase or geranylgeranyl protein transferase I, respectively (see above). […] After 24 hours, media was removed and fresh media containing the appropriate drugs was re-added. 48 hours after electroporation cells were examined under the microscope to monitor disordered cell growth induced by transforming Ras. Cells expressing transforming Ras become more rounded and refractile and overgrow the monolayer, reminiscent of the transformed phenotype. […] Cells were lysed by homogenization and cell debris was removed by centrifugation at 2000×g for 10 min. Cellular protein was precipitated by addition of ice-cold trichloroacetic acid and redissolved in 100 μl of SDS-electrophoresis sample buffer. […] Proteins resolved on the gels were electroblotted onto nitrocellulose membranes for immunodetection. […] E., et al., (1982), Monoclonal antibodies to the p21 products of the transforming gene of Harvey murine sarcome virus and of the cellular ras gene family, J. Virol. 43: 294-304), in PBS containing 1% fetal calf serum for one hour at room temperature. After washing, membranes were incubated for one hour at room temperature with a 1:5000 dilution of secondary antibody, rabbit anti-rat IgG conjugated to horseradish peroxidase, in PBS containing 1% fetal calf serum.

[3] = target: T1, farnesyl protein transferase (FPT), partially purified from rat brain (Rattus norvegicus, UniProt Q02293+Q04631); assay: Inhibition of farnesyl protein transferase (transfer of [3H]farnesyl to Ras-CVLS); assay type: biochemical; settings: for IC50: read-out: FPT IC50
T1 construct: were partially purified from rat brain by ammonium sulfate fractionation followed by Q-Sepharose
In short: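 Transfer of [3H]farnesyl onto E. coli-expressed, His6-tagged Ras-CVLS was measured after 30 min at room temperature. Radiolabelled Ras was TCA-precipitated on ice and filter-harvested, and inhibition was expressed as percent of DMSO control.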

[4] = test system: Normal human HEPM fibroblasts; assay: Cell Mat Assay: density of mat cells (mIC50); assay type: cell-based
Procedure: as §1

[5] = Ras-CVLS farnesylation, partially purified rat brain FPT

T1 sequence (Q02293 whole entry, one chain of several): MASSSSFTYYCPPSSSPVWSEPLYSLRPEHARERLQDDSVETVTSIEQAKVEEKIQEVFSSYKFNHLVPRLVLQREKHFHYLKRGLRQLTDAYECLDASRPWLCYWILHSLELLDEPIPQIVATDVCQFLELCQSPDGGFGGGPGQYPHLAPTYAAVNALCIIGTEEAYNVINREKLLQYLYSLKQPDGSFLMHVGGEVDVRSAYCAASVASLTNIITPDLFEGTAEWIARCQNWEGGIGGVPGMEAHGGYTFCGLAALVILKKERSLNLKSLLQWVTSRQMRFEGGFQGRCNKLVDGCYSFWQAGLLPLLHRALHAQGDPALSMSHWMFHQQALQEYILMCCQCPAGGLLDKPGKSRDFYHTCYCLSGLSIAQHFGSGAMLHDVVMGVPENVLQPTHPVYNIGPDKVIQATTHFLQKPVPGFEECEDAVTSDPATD

Row | Structure (SMILES) | IC50 ([1]; Homo sapiens) [µM] | IC50 ([2]; Primates, COS) [µM] | IC50 [3, 5] [µM] | IC50 ([4]; Homo sapiens, Fibroblast) [µM] | other results
1 | O=C(Cc1ccncc1)N1CCC(=C2c3ccccc3CCc3ccccc32)CC1 [Example 87] | 50 | 12.7 | 1.14 | > 50 | 
2 | CN1CCC(CC(=O)N2CCN(C3c4ccc(Cl)cc4CCc4cccnc43)CC2)CC1 (centres unmarked) [Example 201] | 3.1 | 0.93 | 1.4 | 12.5 | 
3 | O=C(Cc1ccncc1)N1CCC(C2c3ccc(Cl)cc3C=Cc3cccnc32)CC1 (centres unmarked) [Example 269] | 6.25 | 0.69 |  | 12.5 | 
4 | O=C(Nc1cccnc1)N1CCN([C@H]2c3ccc(Cl)cc3CCc3cccnc32)CC1 [224 (6.11)] | 37 | 7.3 | 0.46 | > 50 | 
5 | O=C(Cc1ccc[n+]([O-])c1)N1CCC(C2c3ccc(Cl)cc3CCc3cccnc32)CC1 (centres unmarked) [Example 233] | 18 | 10 | 0.67 | > 50 | 
6 | CC(=O)SCC(C(=O)N1CCC(=C2c3ccc(Cl)cc3CCc3cccnc32)CC1)c1ccccc1 (centres unmarked) [Example 84] |  | > 9.7 | 0.29 |  | 
7 | O=C(CN1C(=O)c2ccccc2S1(=O)=O)N1CCC(=C2c3ccc(Cl)cc3CCc3cccnc32)CC1 [Example 85] |  | > 37.4 | 2 |  | 
8 | O=C1Cc2cccnc2C(=C2CCN(C(=O)Cc3ccncc3)CC2)c2ccc(Cl)cc21 [Example 285] | 12.5 | 5.2 | 0.76 | > 50 | IC50 ([2]; listed as 285 (5.153)): 10.1 µM
9 | CC(C)(C(=O)N1CCN(C2c3ccc(Cl)cc3CCc3cc(Br)cnc32)CC1)c1cc[n+]([O-])cc1 (centres unmarked) [Example 425-J] | 3.1 | 5 |  | > 25 | IC50 ([3]; enzyme inhibition): 0.39 µM
10 | CS(=O)(=O)OCC(C(=O)N1CCC(=C2c3ccc(Cl)cc3CCc3cccnc32)CC1)c1ccccc1 (centres unmarked) [Example 83, 8-chloro-11-[1-(2-methanesulfonyl-oxy-1-phenylethylcarbonyl)-4-piperidylidene]-6,11-dihydro-5H-benzo-[5,6]cyclohepta-[1,2-b]pyridine] |  | 7.4 | 0.59 |  | 
11 | O=C(Nc1ccccn1)N1CCC(=C2c3ccc(Cl)cc3CCc3cccnc32)CC1 [Example 294] | 18 | 5.2 | 2.11 | > 50 | IC50 [2]: 2.8 µM
12 | CC(C)(C(=O)N1CCC(=C2c3ccc(Cl)cc3CCc3cccnc32)CC1)c1cccnc1 [Example 300] | < 3.1 | 2.6 | 0.96 | > 50 | 
13 | CC(C)(C)C(=O)N1CCC(=C2c3ccc(Cl)cc3CCc3cccnc32)CC1 [Example 53] |  |  | 1.5 |  | IC50 [1]: 25 µM; IC50 [2]: > 13 µM; IC50 [4]: > 50 µM
14 | CCc1cc2c(cc1Cl)C=Cc1cccnc1C2C1CCN(C(=O)Cc2ccncc2)CC1 (centres unmarked) [Example 417] | 10 | 4 |  | 18 | IC50 ([3]; enzyme inhibition): 1.16 µM
15 | O=C(C1CCCC1)N1CCC(=C2c3ccc(Cl)cc3CCc3cccnc32)CC1 [Example 157] |  | 4.5 |  |  | 
16 | CC(C)(C(=O)N1CCN(C2c3ccc(Cl)cc3CCc3cccnc32)CC1)c1cccnc1 (centres unmarked) [Example 198] | 12.5 | 6.1 |  | > 50 | 
17 | O=C(Cc1ccncc1)N1CCC(=C2c3ccc(Cl)cc3CCc3ccc[n+]([O-])c32)CC1 [230 (5.105)] |  |  |  |  | IC50 [1]: 37 µM; IC50 [2]: > 20 µM; IC50 [4]: > 50 µM
18 | O=C(Cc1ccncc1)N1CCC(=C2c3ccc(Br)cc3CCc3cccnc32)CC1 [181 (5.48)] | < 3.1 | 1.1 |  | > 50 | 
19 | O=C(Cc1ccc[n+]([O-])c1)N1CCN(C2c3ccc(Cl)cc3CCc3ccc[n+]([O-])c32)CC1 (centres unmarked) [185 (5.61)] |  | > 20 | 3.8 |  | 
20 | O=C(Nc1cccnc1)N1CCC(=C2c3ccc(Cl)cc3CCc3c(Cl)ccnc32)CC1 [Example 261] |  | 9.1 | 1.3 |  | 
21 | Cc1ccc2c(c1)CCc1cccnc1C2=C1CCN(C(=O)Cc2ccncc2)CC1 [Example 434] |  | < 5 |  |  | FPT inhibition at the concentration in parentheses ([3]; (0.48) μM): 70 (0.48); IC50 ([3]; enzyme inhibition): 0.26 µM
